From US20240181049A1, “HARNESSING THE POWER OF MICROBIOTA AND METABOLITES FOR THE TREATMENT OF CANCER” (UTI LIMITED PARTNERSHIP, priority 2019, published 2024) come the findings set out here.

SMILES strings stand for the structures.

This assay relates to A2AR-deficient CD4^+ T cells. Nature of the assay: A2AR-deficient naive CD4+ T cells with anti-CD3/anti-CD28 coated beads. It counts as cell-based, mice. Here is the method: FIG. 16A-16J: Context dependent effect of inosine on Th1 T cell differentiation. (a) Naïve CD4^+ T cells were co-cultured with bone marrow derived dendritic cells without IFN-γ. Quantification of T-bet^+CD3e^+CD4^+ T cells 48 hours after co-culture in the presence or absence of inosine and anti-CTLA-4, as indicated. (b) Naïve CD4^+ T cells were cultured anti-CD3/anti-CD28 coated beads at a ratio of 1:1 without IFN-γ for 48 hours. Representative plot and quantification of IL12Rβ2 surface expression on CD4^+ T cells in the presence or absence of inosine (left and right panel). (c) Quantification of T-bet^+CD3e^+CD4^+ T cells 48 hours after co-culture in the presence or absence of inosine, db-cAMP and anti-CTLA-4 as indicated. […] Quantification of T-bet^+CD3e^+CD4^+ T cells 48 hours after co-culture in the presence or absence of inosine or db-cAMP (e) Representative plot and quantification (left and right panel) of pCREB expression of anti-CD3/anti-CD28 bead co-cultured CD4^+ T cells in the presence or absence of inosine or db-cAMP 1 hour after stimulation. […] Il12rb2 and Ifng gene transcripts (normalized to Gapdh) were evaluated 24 and 48 hours following inosine (1 mM) stimulation. […] Analysis through quantitative PCR assay (h) Naïve CD4^+ T cells were cultured with anti-CD3/anti-CD28 coated beads at a ratio of 1:1 without IFN-γ for 24 hours. […]

Consider `OC[C@H]1O[C@@H](n2cnc3c(O)ncnc32)[C@H](O)[C@@H]1O` [inosine], for which the “Th1 differentiation and phosphorylation of CREB” value is given as “absent”.
